Laboratory results: publication PMC5218480 (PLoS ONE, 2017)

Test system: MV-4-11 cells
Assay: Gene expression microarray analysis (Affymetrix PrimeView) and GSEA
Type: cell-based, human
Parameters: RFU PODN (11730768_x_at) / Fold change /veh PODN (11730768_x_at) / RFU LINC00158 (11744669_a_at) / Fold change /veh LINC00158 (11744669_a_at) / RFU DUSP10 (11751237_a_at) / Fold change /veh DUSP10 (11751237_a_at) / RFU ID3 (11757404_x_at) / Fold change /veh ID3 (11757404_x_at) / RFU PLEKHG5 (11737974_s_at) / Fold change /veh PLEKHG5 (11737974_s_at) / RFU LRRC4B (11730491_at) / Fold change /veh LRRC4B (11730491_at) / RFU GIMAP4 (11747438_a_at) / Fold change /veh GIMAP4 (11747438_a_at) / RFU KRT8 (11758183_x_at) / Fold change /veh KRT8 (11758183_x_at) / RFU CNN1 (11734310_a_at) / Fold change /veh CNN1 (11734310_a_at) / RFU VPS37D (11726825_at) / Fold change /veh VPS37D (11726825_at) / RFU C10orf10 (11716522_x_at) / Fold change /veh C10orf10 (11716522_x_at) / RFU KIR2DL2 /// KIR2DL4 /// KIR2DL5A /// KIR2DL5B /// KIR2DS1 /// KIR2DS2 /// KIR2DS3 /// KIR2DS4 /// KIR3DL3 /// KIR3DL3 /// KIR3DS1 (11738374_at) / Fold change /veh KIR2DL2 /// KIR2DL4 /// KIR2DL5A /// KIR2DL5B /// KIR2DS1 /// KIR2DS2 /// KIR2DS3 /// KIR2DS4 /// KIR3DL3 /// KIR3DL3 /// KIR3DS1 (11738374_at) / RFU C1QL1 (11718748_at) / Fold change /veh C1QL1 (11718748_at) / RFU TMPRSS4 (11747572_a_at) / Fold change /veh TMPRSS4 (11747572_a_at) / RFU HAMP (11756126_x_at) / Fold change /veh HAMP (11756126_x_at) / RFU RNFT2 (11725882_a_at) / Fold change /veh RNFT2 (11725882_a_at) / RFU NR4A2 (11747474_a_at) / Fold change /veh NR4A2 (11747474_a_at) / RFU ABCC12 (11746883_a_at) / Fold change /veh ABCC12 (11746883_a_at) / RFU TMEM136 (11760407_x_at) / Fold change /veh TMEM136 (11760407_x_at) / RFU CLDN22 /// WWC2 (11732394_at) / Fold change /veh CLDN22 /// WWC2 (11732394_at) / RFU HLA-DPB1 (11760878_x_at) / Fold change /veh HLA-DPB1 (11760878_x_at) / RFU SPINT1 (11716480_a_at) / Fold change /veh SPINT1 (11716480_a_at) / RFU GAP43 (11754022_s_at) / Fold change /veh GAP43 (11754022_s_at) / RFU A4GNT (11735810_at) / Fold change /veh A4GNT (11735810_at) / RFU PRB3 (11715151_x_at) / Fold change /veh PRB3 (11715151_x_at) / RFU TUBB4B (11761932_at) / Fold change /veh TUBB4B (11761932_at) / RFU CAPN14 (11732068_a_at) / Fold change /veh CAPN14 (11732068_a_at) / RFU TMCC2 (11721928_a_at) / Fold change /veh TMCC2 (11721928_a_at) / RFU IRGQ (11745062_a_at) / Fold change /veh IRGQ (11745062_a_at) / RFU FAM174B (11720279_a_at) / Fold change /veh FAM174B (11720279_a_at) / RFU TMPRSS4 (11748680_a_at) / Fold change /veh TMPRSS4 (11748680_a_at) / RFU FAM212B (11763350_a_at) / Fold change /veh FAM212B (11763350_a_at) / RFU PLEKHG5 (11743358_a_at) / Fold change /veh PLEKHG5 (11743358_a_at) / RFU ZSCAN30 (11745921_a_at) / Fold change /veh ZSCAN30 (11745921_a_at) / RFU CMKLR1 (11741424_a_at) / Fold change /veh CMKLR1 (11741424_a_at) / RFU LOC101060620 /// MAPK8IP1 (11723275_at) / Fold change /veh LOC101060620 /// MAPK8IP1 (11723275_at) / RFU SPTSSB (11747773_x_at) / Fold change /veh SPTSSB (11747773_x_at) / RFU PRSS12 (11739890_at) / Fold change /veh PRSS12 (11739890_at) / RFU BIN1 (11741810_x_at) / Fold change /veh BIN1 (11741810_x_at) / RFU WNT11 (11732464_a_at) / Fold change /veh WNT11 (11732464_a_at) / RFU C10orf10 (11716521_a_at) / Fold change /veh C10orf10 (11716521_a_at) / RFU C5orf56 (11738089_at) / Fold change /veh C5orf56 (11738089_at) / RFU CYB561 (11721691_x_at) / Fold change /veh CYB561 (11721691_x_at) / RFU ANKRD19P (11752326_a_at) / Fold change /veh ANKRD19P (11752326_a_at) / RFU OR2T12 /// OR2T33 /// OR2T8 (11738714_s_at) / Fold change /veh OR2T12 /// OR2T33 /// OR2T8 (11738714_s_at) / RFU VCAN (11748164_a_at) / Fold change /veh VCAN (11748164_a_at) / RFU JSRP1 (11732532_at) / Fold change /veh JSRP1 (11732532_at) / RFU KRTAP10-11 (11738290_x_at) / Fold change /veh KRTAP10-11 (11738290_x_at) / RFU MYO3A (11730013_a_at) / Fold change /veh MYO3A (11730013_a_at) / RFU EBF3 (11725865_a_at) / Fold change /veh EBF3 (11725865_a_at) / RFU CAMK2N1 (11719241_x_at) / Fold change /veh CAMK2N1 (11719241_x_at) / RFU C5orf56 (11738088_a_at) / Fold change /veh C5orf56 (11738088_a_at) / RFU OLFML3 (11715873_a_at) / Fold change /veh OLFML3 (11715873_a_at) / RFU LOC100653217 /// NTM (11731650_a_at) / Fold change /veh LOC100653217 /// NTM (11731650_a_at) / RFU MAPK11 (11762145_a_at) / Fold change /veh MAPK11 (11762145_a_at) / RFU FIZ1 (11724087_x_at) / Fold change /veh FIZ1 (11724087_x_at) / RFU OASL (11726364_x_at) / Fold change /veh OASL (11726364_x_at) / RFU SOX15 (11748057_x_at) / Fold change /veh SOX15 (11748057_x_at) / RFU CD79A (11719716_a_at) / Fold change /veh CD79A (11719716_a_at) / RFU HIST1H1D (11736915_at) / Fold change /veh HIST1H1D (11736915_at) / RFU CASKIN2 (11723855_a_at) / Fold change /veh CASKIN2 (11723855_a_at) / RFU LOC730098 (11760151_x_at) / Fold change /veh LOC730098 (11760151_x_at) / RFU OR4N2 (11742367_at) / Fold change /veh OR4N2 (11742367_at) / RFU PRRT2 (11749266_a_at) / Fold change /veh PRRT2 (11749266_a_at) / RFU SNX32 (11753110_a_at) / Fold change /veh SNX32 (11753110_a_at) / RFU CDHR5 (11726645_a_at) / Fold change /veh CDHR5 (11726645_a_at) / RFU RCAN1 (11760418_a_at) / Fold change /veh RCAN1 (11760418_a_at) / RFU FAM167A (11723789_a_at) / Fold change /veh FAM167A (11723789_a_at) / RFU FAM26E (11764081_at) / Fold change /veh FAM26E (11764081_at) / RFU ISYNA1 (11749810_s_at) / Fold change /veh ISYNA1 (11749810_s_at) / RFU ACY1 (11761880_at) / Fold change /veh ACY1 (11761880_at) / RFU 11764098_at / Fold change /veh 11764098_at / RFU SAMD14 (11745864_x_at) / Fold change /veh SAMD14 (11745864_x_at) / RFU NPB (11741838_a_at) / Fold change /veh NPB (11741838_a_at) / RFU TMPRSS6 (11731388_a_at) / Fold change /veh TMPRSS6 (11731388_a_at) / RFU KRTAP10-2 (11738614_at) / Fold change /veh KRTAP10-2 (11738614_at) / RFU ARHGAP8 /// PRR5-ARHGAP8 (11727945_x_at) / Fold change /veh ARHGAP8 /// PRR5-ARHGAP8 (11727945_x_at) / RFU KRTAP5-7 /// NADSYN1 (11734609_at) / Fold change /veh KRTAP5-7 /// NADSYN1 (11734609_at) / RFU RASL12 (11751679_a_at) / Fold change /veh RASL12 (11751679_a_at) / RFU CDKN2B (11736163_a_at) / Fold change /veh CDKN2B (11736163_a_at) / RFU PRF1 (11729649_at) / Fold change /veh PRF1 (11729649_at) / RFU, ZNF638 /// ZNF638-IT1 / Fold change vs veh, ZNF638 /// ZNF638-IT1 / RFU, PANK3 / Fold change vs veh, PANK3 / RFU, SH3YL1 / Fold change vs veh, SH3YL1 / RFU, ZEB2 / Fold change vs veh, ZEB2 / RFU, NRIP1 / Fold change vs veh, NRIP1 / RFU, PTTG1IP / Fold change vs veh, PTTG1IP / RFU, CAPN2 / Fold change vs veh, CAPN2 / RFU, MED14 / Fold change vs veh, MED14 / RFU, SNORA58 / Fold change vs veh, SNORA58 / RFU, C1orf63 / Fold change vs veh, C1orf63 / RFU, LRRFIP1 / Fold change vs veh, LRRFIP1 / RFU, NDUFAF7 / Fold change vs veh, NDUFAF7 / RFU, SLC12A2 / Fold change vs veh, SLC12A2 / RFU, IBTK / Fold change vs veh, IBTK / RFU, ESF1 / Fold change vs veh, ESF1 / Fold change vs veh, TMEM50B / RFU, TAOK1 / Fold change vs veh, TAOK1 / RFU, ACBD3 / Fold change vs veh, ACBD3 / RFU, TMA16 / Fold change vs veh, TMA16 / RFU, RWDD3 / Fold change vs veh, RWDD3 / RFU, BCAT1 / Fold change vs veh, BCAT1 / RFU, EDEM3 / Fold change vs veh, EDEM3 / RFU, TMEM33 / Fold change vs veh, TMEM33 / RFU, WDR75 / Fold change vs veh, WDR75 / RFU, AHCTF1 / Fold change vs veh, AHCTF1 / RFU, TFRC / Fold change vs veh, TFRC / RFU, ZDHHC17 / Fold change vs veh, ZDHHC17 / RFU, NOM1 / Fold change vs veh, NOM1 / RFU, ARL8B / Fold change vs veh, ARL8B / RFU, ZBTB11 / Fold change vs veh, ZBTB11 / RFU, TAMM41 / Fold change vs veh, TAMM41 / RFU, KIAA1704 /// LOC100996395 / Fold change vs veh, KIAA1704 /// LOC100996395 / RFU, ING1 / Fold change vs veh, ING1 / RFU, TRMT61B / Fold change vs veh, TRMT61B / RFU, FUBP3 / Fold change vs veh, FUBP3 / RFU, TP53 / Fold change vs veh, TP53 / RFU, TNKS2 / Fold change vs veh, TNKS2 / RFU, ZFP14 / Fold change vs veh, ZFP14 / RFU, ACTR2 / Fold change vs veh, ACTR2 / RFU, PPP3R1 / Fold change vs veh, PPP3R1 / RFU, PIK3R1 / Fold change vs veh, PIK3R1 / RFU, HNRNPA1 / Fold change vs veh, HNRNPA1 / RFU, RNF170 / Fold change vs veh, RNF170 / RFU, ZNF28 / Fold change vs veh, ZNF28 / RFU, RNGTT / Fold change vs veh, RNGTT / RFU, OGT / Fold change vs veh, OGT / RFU, BRD1 / Fold change vs veh, BRD1 / RFU, MARS / Fold change vs veh, MARS / RFU, ZNF655 / Fold change vs veh, ZNF655 / RFU, FAHD1 / Fold change vs veh, FAHD1 / RFU, BDP1 / Fold change vs veh, BDP1 / RFU, LRRCC1 / Fold change vs veh, LRRCC1 / RFU, ARID1A / Fold change vs veh, ARID1A / RFU, ZNF146 / Fold change vs veh, ZNF146 / RFU, ZNF330 / Fold change vs veh, ZNF330 / RFU, GPN3 / Fold change vs veh, GPN3 / RFU, C9orf123 / Fold change vs veh, C9orf123 / RFU, N4BP2L2 / Fold change vs veh, N4BP2L2 / RFU, ARFIP1 / Fold change vs veh, ARFIP1 / RFU, FAM179B / Fold change vs veh, FAM179B / RFU, BCL10 / Fold change vs veh, BCL10 / RFU, UHRF1BP1L / Fold change vs veh, UHRF1BP1L / RFU, BET1 / Fold change vs veh, BET1 / RFU, CNOT2 / Fold change vs veh, CNOT2 / RFU, ZNF268 / Fold change vs veh, ZNF268 / Fold change vs veh, ZNF507 / RFU, DGCR2 / Fold change vs veh, DGCR2 / RFU, WDSUB1 / Fold change vs veh, WDSUB1 / Fold change vs veh, HSP90B1 /// MIR3652 / RFU, ADSS / Fold change vs veh, ADSS / RFU, GK / Fold change vs veh, GK / RFU, ZNF148 / Fold change vs veh, ZNF148 / RFU, TAF9 / Fold change vs veh, TAF9 / RFU, SLC1A5 / Fold change vs veh, SLC1A5 / RFU, SLMO2 / Fold change vs veh, SLMO2 / RFU, ABCC4 / Fold change vs veh, ABCC4 / RFU, LOC101060439 /// RAP1B / Fold change vs veh, LOC101060439 /// RAP1B / RFU, RFX7 / Fold change vs veh, RFX7 / RFU, GTPBP10 / Fold change vs veh, GTPBP10 / RFU, CNEP1R1 / Fold change vs veh, CNEP1R1 / RFU, BIVM-ERCC5 /// ERCC5 / Fold change vs veh, BIVM-ERCC5 /// ERCC5 / RFU, ILF3 / Fold change vs veh, ILF3 / RFU 11762660_at / Fold change /veh 11762660_at / RFU VCAN (11757783_s_at) / Fold change /veh VCAN (11757783_s_at) / RFU DDX43 (11728927_at) / Fold change /veh DDX43 (11728927_at) / RFU KRT8 (11758188_x_at) / Fold change /veh KRT8 (11758188_x_at) / RFU NKD1 (11759106_at) / Fold change /veh NKD1 (11759106_at) / RFU SRD5A1 (11742802_a_at) / Fold change /veh SRD5A1 (11742802_a_at) / RFU TPSAB1 /// TPSB2 (11721975_s_at) / Fold change /veh TPSAB1 /// TPSB2 (11721975_s_at) / RFU GSTM3 (11746129_a_at) / Fold change /veh GSTM3 (11746129_a_at) / RFU IL23R (11737362_x_at) / Fold change /veh IL23R (11737362_x_at) / RFU TMEM51 (11727254_a_at) / Fold change /veh TMEM51 (11727254_a_at) / RFU PIWIL2 (11732686_x_at) / Fold change /veh PIWIL2 (11732686_x_at) / RFU ORM1 (11744905_x_at) / Fold change /veh ORM1 (11744905_x_at) / RFU CCDC152 (11743942_at) / Fold change /veh CCDC152 (11743942_at) / RFU ECM1 (11717891_a_at) / Fold change /veh ECM1 (11717891_a_at) / RFU IL23R (11748794_a_at) / Fold change /veh IL23R (11748794_a_at) / RFU TNFAIP8L3 (11732012_x_at) / Fold change /veh TNFAIP8L3 (11732012_x_at) / RFU MBOAT4 (11741988_at) / Fold change /veh MBOAT4 (11741988_at) / RFU 11764193_at / Fold change /veh 11764193_at / RFU TMEM53 (11763286_at) / Fold change /veh TMEM53 (11763286_at) / RFU MAGEB2 (11727129_at) / Fold change /veh MAGEB2 (11727129_at) / RFU TMEM200A (11744735_a_at) / Fold change /veh TMEM200A (11744735_a_at) / RFU CCDC152 (11751479_a_at) / Fold change /veh CCDC152 (11751479_a_at) / RFU FAM211A (11726209_a_at) / Fold change /veh FAM211A (11726209_a_at) / RFU RGS16 (11746705_a_at) / Fold change /veh RGS16 (11746705_a_at) / RFU VCAN (11755009_s_at) / Fold change /veh VCAN (11755009_s_at) / RFU RHOB (11743442_s_at) / Fold change /veh RHOB (11743442_s_at) / RFU RGS16 (11720943_a_at) / Fold change /veh RGS16 (11720943_a_at) / RFU RGS16 (11720944_at) / Fold change /veh RGS16 (11720944_at) / RFU, VPS4B / Fold change vs veh, VPS4B / RFU, CREB1 / Fold change vs veh, CREB1 / RFU, DNAJC13 / Fold change vs veh, DNAJC13 / RFU, GNAQ / Fold change vs veh, GNAQ / RFU, CDK5R1 / Fold change vs veh, CDK5R1 / RFU, ZRANB3 / Fold change vs veh, ZRANB3 / RFU, CUL4A / Fold change vs veh, CUL4A / RFU, CCNY / Fold change vs veh, CCNY / RFU, UFL1 / Fold change vs veh, UFL1 / RFU, COG3 / Fold change vs veh, COG3 / RFU, DIAPH2 / Fold change vs veh, DIAPH2 / RFU, SKA2 / Fold change vs veh, SKA2 / RFU, AFF3 / Fold change vs veh, AFF3 / RFU, LMF1 / Fold change vs veh, LMF1 / RFU, IPO11 / Fold change vs veh, IPO11 / RFU, DFFB / Fold change vs veh, DFFB / RFU, FOXP1 / Fold change vs veh, FOXP1 / RFU, CARD8 / Fold change vs veh, CARD8 / RFU, STRN3 / Fold change vs veh, STRN3 / RFU, ADK / Fold change vs veh, ADK / RFU, RASSF2 / Fold change vs veh, RASSF2 / RFU, WIPF1 / Fold change vs veh, WIPF1 / RFU, LARP1B / Fold change vs veh, LARP1B / RFU, RASA1 / Fold change vs veh, RASA1 / RFU, RB1 / Fold change vs veh, RB1 / RFU, PPFIA1 / Fold change vs veh, PPFIA1 / RFU, MAT2A / Fold change vs veh, MAT2A / RFU, CCT5 / Fold change vs veh, CCT5 / RFU, WDR92 / Fold change vs veh, WDR92 / RFU, CUX1 / Fold change vs veh, CUX1 / RFU, TTC7A / Fold change vs veh, TTC7A / RFU, TMEM135 / Fold change vs veh, TMEM135 / RFU, DEPTOR / Fold change vs veh, DEPTOR / RFU, CPM / Fold change vs veh, CPM / RFU, DNAJB6 / Fold change vs veh, DNAJB6 / RFU, CACNA2D3 / Fold change vs veh, CACNA2D3 / RFU, DTX4 / Fold change vs veh, DTX4 / RFU, TFCP2 / Fold change vs veh, TFCP2 / RFU, GMCL1 /// GMCL1P1 / Fold change vs veh, GMCL1 /// GMCL1P1 / RFU, AEBP2 / Fold change vs veh, AEBP2 / RFU, SNHG1 /// SNORD22 /// SNORD25 /// SNORD26 /// SNORD27 /// SNORD28 /// SNORD29 /// SNORD31 / Fold change vs veh, SNHG1 /// SNORD22 /// SNORD25 /// SNORD26 /// SNORD27 /// SNORD28 /// SNORD29 /// SNORD31 / Fold change (Aza/veh), C12orf56 (ProbeSet 11735607_a_at) / Fold change (ACY-1035/veh), C12orf56 (ProbeSet 11735607_a_at) / Fold change (Aza/veh), FGFR1OP (ProbeSet 11751329_s_at) / Fold change (ACY-1035/veh), FGFR1OP (ProbeSet 11751329_s_at) / Fold change (Aza/veh), VPS36 (ProbeSet 11739960_a_at) / Fold change (ACY-1035/veh), VPS36 (ProbeSet 11739960_a_at) / RFU SYPL1 (11715823_x_at) / Fold change /veh SYPL1 (11715823_x_at) / RFU IGFBP7 (11715501_s_at) / Fold change /veh IGFBP7 (11715501_s_at) / RFU REEP3 (11722064_at) / Fold change /veh REEP3 (11722064_at) / RFU IGLL1 (11728026_x_at) / Fold change /veh IGLL1 (11728026_x_at): dose or concentration left out as unconfirmed
Details: MV-4-11 cells, 48 hours

## Nc1ccc(-c2cccs2)cc1NC(=O)c1ccc2c(c1)cc(C1CC1)n2CCN1CCOCC1 [ACY-1035]
  Fold change /veh CMKLR1 (11741424_a_at): 1.11
